# Assay results published in PMC12461739, “Multi-targeted azacoumarin–cyanocinnamate hybrids induce G2/M arrest and apoptosis via tubulin, and COX-2/VEGFR modulation: insights from in vitro mechanistic basis and in vivo validation” (RSC Medicinal Chemistry, 2025).
# Read-outs that look alike come from different tables or passages of the source.
# Assays:
# MCF-7 cells = assay: MTT antiproliferative assay, MCF-7; type: cell-based, human; conditions: for IC50: MTT, 48 h treatment, read-out: IC50, antiproliferative activity toward MCF-7; for fold reduction of cytotoxic activity after acetylation of the hydroxyl group: MCF-7, vs parent compound (7 or 6a)
# Protocol: (§1) The cytotoxic effects of the synthesized compounds were evaluated using the MTT assay. MCF-7, MDA-MB 231 (human breast cancer), and MCF-10A (non-tumorigenic breast epithelial) cells were seeded (1–3 × 10^4 cells per well) and incubated for 24 hours at 37 °C in a humidified atmosphere containing 5% CO2.[74] Following incubation, cells were treated with serial dilutions of the test compounds prepared in DMSO. The final concentration of DMSO in all wells, including controls, was maintained below 0.5% v/v to avoid solvent-related cytotoxicity. Doxorubicin was used as a positive control for comparison of antiproliferative activity. Following 48 hours of treatment, the culture medium was gently removed, and each well received 20 μL of MTT reagent (5 mg mL^−1 in phosphate-buffered saline). The plates were incubated at 37 °C for 4 hours to facilitate the enzymatic reduction of MTT into formazan by metabolically active cells. After incubation, the solution was discarded, and 100 μL of dimethyl sulfoxide was added. The absorbance of each well was measured at 570 nm using a microplate spectrophotometer. Cell viability was determined by comparing absorbance values to those of the untreated controls and expressed as a percentage. GraphPad Prism software was used to plot dose–response curves and calculate IC50 values.
# MDA-MB 231 cells = assay: MTT antiproliferative assay, MDA-MB 231; type: cell-based, human; conditions: for IC50: Homo sapiens, MDA-MB-231, 48 h, MTT, 48 h treatment, read-out: IC50, antiproliferative activity toward MDA-MB 231
# Protocol: as §1
# [1] = FRAP (ferric reducing antioxidant power) assay; conditions: 37 °C, 60 min
# Protocol: The resulting Fe^2+ forms a colored complex with the FRAP chromogenic probe, which can be quantitatively measured. The reaction mixture was prepared by combining FRAP assay buffer, FRAP probe, and FeCl3 solution as per the manufacturer's protocol. […] Absorbance was measured at 594 nm using a microplate reader after incubation at 37 °C for 60 minutes. Antioxidant activity was determined by comparing the absorbance of the samples to a standard curve generated using known concentrations of the ferrous standard provided in the kit.
# [2] = MTT cytotoxicity assay, MCF-10A; type: cell-based, human; conditions: human, MCF-10A non-tumorigenic breast epithelial cells, MTT, 48 h treatment, non-tumorigenic breast epithelial cells; read-out: IC50, cytotoxicity toward MCF-10A
# Protocol: as §1, with “MCF-7, MDA-MB 231 (human breast cancer), and MCF-10A (non-tumorigenic breast epithelial) cells were seeded (1–3 × 10^4 cells per well) and incubated for 24 hours at 37 °C in a humidified atmosphere containing 5% CO2.[74]” left out
# MCF-10A cells = assay: MTT cytotoxicity assay, MCF-10A; type: cell-based, human
# Protocol: as §1, with “MCF-7, MDA-MB 231 (human breast cancer), and MCF-10A (non-tumorigenic breast epithelial) cells were seeded (1–3 × 10^4 cells per well) and incubated for 24 hours at 37 °C in a humidified atmosphere containing 5% CO2.[74]” left out
Structure (SMILES),"IC50 (MCF-7 cells; Homo sapiens, MCF7, 48 h) [µM]",IC50 (MDA-MB 231 cells) [µM],IC50 [1] [µM],IC50 (MCF-7 cells) [µM],fold improvement in cytotoxicity in MDA-MB-231 compared to MCF-7 (MDA-MB 231 cells; MDA-MB-231 vs MCF-7) [fold],fold reduction of cytotoxic activity after acetylation of the hydroxyl group (MCF-7 cells) [fold],IC50 at 48 h [2] [µM],selectivity index toward breast cancer cells (MCF-10A cells; MCF-10A vs MCF-7 / MDA-MB 231),"IC50 (MCF-10A cells; MTT, 48 h treatment, non-tumorigenic breast epithelial cells, read-out: IC50, cytotoxicity toward MCF-10A) [µM]"
"CCOC(=O)/C(C#N)=C/c1ccc(Oc2c(C)c3cc(Br)c(OC(C)=O)c(Br)c3[nH]c2=O)cc1 [Compound 8, ethyl (E)-3-(4-((7-acetoxy-6,8-dibromo-4-methyl-2-oxo-1,2-dihydroquinolin-3-yl)oxy)phenyl)-2-cyanoacrylate]",17.8 ± 1.05,26.9 ± 0.79,–,17.8 ± 1.05,–,2.3,–,–,–
"CCOC(=O)/C(C#N)=C/c1ccc(Oc2c(C)c3cc(Br)c(OC(C)=O)c(Br)c3[nH]c2=O)c(OC)c1 [Compound 9, ethyl (E)-3-(4-((7-acetoxy-6,8-dibromo-4-methyl-2-oxo-1,2-dihydroquinolin-3-yl)oxy)-3-methoxyphenyl)-2-cyanoacrylate]",33.4 ± 1.96,44.2 ± 2.96,–,33.4 ± 1.96,–,1.25,–,–,–
"O=C1O[C@H]([C@@H](O)CO)C(O)=C1O [ascorbic acid, reference compound]",–,–,110 ± 4.21,–,–,–,–,–,–
"COc1cccc2c1C(=O)c1c(O)c3c(c(O)c1C2=O)C[C@@](O)(C(=O)CO)C[C@@H]3O[C@H]1C[C@H](N)[C@H](O)[C@H](C)O1 [doxorubicin, reference compound]",12.6 ± 0.61,8.4 ± 0.61,–,–,–,–,16.2 ± 0.55,1.3,16.2 ± 0.55

# More lines, main results first:
"IC50 (MCF-7 cells; Homo sapiens, MCF7, 48 h) [µM]",IC50 (MDA-MB 231 cells) [µM],IC50 [1] [µM],Structure (SMILES),IC50 (MCF-7 cells) [µM],fold improvement in cytotoxicity in MDA-MB-231 compared to MCF-7 (MDA-MB 231 cells; MDA-MB-231 vs MCF-7) [fold],fold reduction of cytotoxic activity after acetylation of the hydroxyl group (MCF-7 cells) [fold],IC50 at 48 h [2] [µM],selectivity index toward breast cancer cells (MCF-10A cells; MCF-10A vs MCF-7 / MDA-MB 231),"IC50 (MCF-10A cells; MTT, 48 h treatment, non-tumorigenic breast epithelial cells, read-out: IC50, cytotoxicity toward MCF-10A) [µM]"
26.6 ± 1.56,19.6 ± 1.72,–,"CCOC(=O)/C(C#N)=C/c1ccc(Oc2c(C)c3cc(Br)c(O)c(Br)c3[nH]c2=O)c(OC)c1 [Compound 6a, ethyl (E)-2-cyano-3-(4-((6,8-dibromo-7-hydroxy-4-methyl-2-oxo-1,2-dihydroquinolin-3-yl)oxy)-3-methoxyphenyl)acrylate]",26.6 ± 1.56,–,–,–,–,–
112 ± 6.57,31.1 ± 1.87,–,"CCOC(=O)/C(C#N)=C/c1cc(Br)c(Oc2c(C)c3cc(Br)c(O)c(Br)c3[nH]c2=O)c(Br)c1 [Compound 6b, ethyl (E)-2-cyano-3-(3,5-dibromo-4-((6,8-dibromo-7-hydroxy-4-methyl-2-oxo-1,2-dihydroquinolin-3-yl)oxy)phenyl)acrylate]",112 ± 6.57,~3.6,–,–,–,–
